Measured values taken from paper PMC10590056, “Design and synthesis of cabotegravir derivatives bearing 1,2,3-triazole and evaluation of anti-liver cancer activity” (Frontiers in Pharmacology, 2023).
Several values for one entry are separate records, joined by “and”; a condition that tells them apart may be missing. Equal entries are not always repeated.

Tests used:
Format in all cases: cell-based
[1] = test system: HepG2 cells; test: MTT assay for cell proliferation and cytotoxicity, HepG2; set-up: key to Inhibitory rate: inhibition rate = 1 - mean A490 sample/mean A490 control (fraction); details: for IC50: HepG2, 48 h, MTT; for Inhibitory rate / ODtreated/ODcontrol: HepG2, fraction, per experiment; for Inhibition rate (16μM), 48 h, HepG2: preliminary screening, HepG2, 16 μM, mean±SD, unit not given
Method: (§1) HepG2, HeLa, MCF-7, and KYSE-30 cells were grown in a humidified incubator at 37°C with 5% CO2 in DMEM supplemented with 10% fetal bovine serum (FBS), […] streptomycin, and 100 U/mL penicillin.
(§2) When HepG2 cells reached 80% confluence, they were treated with 1 mL of trypsin and resuspended at a density of 10^5 cells/mL. Then, 100 μL of cell suspension was seeded into each well of a 96-well plate and incubated in a humidified atmosphere. The different concentrations of KJ-5 and KJ-12 (0, 1, 2, 4, 8, 16, and 32 μM) were added to each well, and the cells were further incubated for 48 h. Afterward, 20 μL of the MTT solution (5 mg/mL) was added to each well, and incubation was continued for another 4 h. The supernatant was discarded, and 200 μL of the DMSO solution was added to each well. The plate was shaken for 10 min in the dark. The absorbance values were measured at 490 nm using an enzyme-linked detector. The cell inhibition rate (%) was calculated using the following formula: (1-Mean A490 sample/Mean A490 control) × 100%.

[2] = test system: MCF-7 cells; test: MTT assay for cell proliferation, MCF-7; set-up: key to Inhibitory rate / Inhibition rate: inhibition rate = 1 - mean A490 sample/mean A490 control (fraction); details: for Inhibition rate (16μM), 48 h, MCF-7: preliminary screening, MCF-7, 16 μM, mean±SD, unit not given
Method: as §1, §2

[3] = test system: HeLa cells; test: MTT assay for cell proliferation, HeLa; set-up: key to Inhibitory rate: inhibition rate = 1 - mean A490 sample/mean A490 control (fraction); details: Hela; for Inhibitory rate / ODtreated/ODcontrol: fraction, per experiment; for Inhibition rate (16μM), 48 h, Hela: preliminary screening, mean±SD, unit not given
Method: as §1, §2

[4] = test system: KYSE-30 cells; test: MTT assay for cell proliferation, KYSE-30; set-up: key to Inhibitory rate: inhibition rate = 1 - mean A490 sample/mean A490 control (fraction); details: for Inhibitory rate: KYSE-30, given as fraction; for Inhibition rate (16μM), 48 h, KYSE-30: preliminary screening, KYSE-30, 16 μM, mean±SD, unit not given
Method: as §1, §2

[5] = MCF-7, fraction, per experiment
[6] = given as fraction, second of three experiments
[7] = given as fraction, third of three experiments
[8] = KYSE-30, first of three experiments
[9] = KYSE-30, second of three experiments
[10] = KYSE-30, third of three experiments

Row | Structure (SMILES) | IC50 [1] | Inhibitory rate [1] | ODtreated/ODcontrol [1] | Inhibition rate (16μM), 48 h, HepG2 [1] | Inhibitory rate [2, 5] | ODtreated/ODcontrol [2, 5] | Inhibitory rate [2, 6] | Inhibition rate [2, 7] | Inhibition rate (16μM), 48 h, MCF-7 [2] | ODtreated/ODcontrol ([2]; second of three experiments) | ODtreated/ODcontrol ([2]; third of three experiments) | Inhibitory rate [3] | ODtreated/ODcontrol [3] | Inhibition rate (16μM), 48 h, Hela [3] | ODtreated/ODcontrol [4, 8] | Inhibitory rate ([4]; first of three experiments) | Inhibitory rate ([4]; second of three experiments) | Inhibitory rate ([4]; third of three experiments) | ODtreated/ODcontrol [4, 9] | ODtreated/ODcontrol [4, 10] | other results
1 | COc1c2n(cc(C(=O)Nc3cccc(-c4cn(-c5cccc(Br)c5)nn4)c3)c1=O)CC1OCC(C)N1C2=O (stereo not shown) [KJ-18] | 6.57 ± 1.45 µM | 0.7113 and 0.6793 and 0.7366 | 0.2887 and 0.3207 and 0.2634 | 70.90±2.87 | 0.5861 | 0.4139 | 0.5487 | 0.6055 | 58.01±2.89 | 0.4513 | 0.3945 | 0.6347 and 0.6562 and 0.6485 | 0.3653 and 0.3438 and 0.3515 | 64.65±1.09 | 0.385 | 0.615 | 0.5247 | 0.5847 | 0.4753 | 0.4153 | Inhibition rate (16μM), 48 h, KYSE-30 [4]: 57.48±4.60
2 | COc1c2n(cc(C(=O)Nc3cccc(-c4cn(-c5ccccc5Br)nn4)c3)c1=O)CC1OCC(C)N1C2=O (stereo not shown) [KJ-13] | > 50 µM | 0.2436 and 0.2489 and 0.2333 | 0.7564 and 0.7511 and 0.7667 | 24.19±0.79 | 0.2953 | 0.7047 | 0.2534 | 0.2193 | 25.6±3.81 | 0.7467 | 0.7807 | 0.1723 and 0.1977 and 0.2047 | 0.8277 and 0.8023 and 0.7953 | 19.16±1.71 | 0.7102 | 0.2898 | 0.2542 | 0.2107 | 0.7458 | 0.7893 | Inhibition rate (16μM), 48 h, KYSE-30 [4]: 25.16±3.96
3 | CCc1ccccc1-n1cc(-c2cccc(NC(=O)c3cn4c(c(OC)c3=O)C(=O)N3[C@@H](C)CO[C@@H]3C4)c2)nn1 [KJ-4] | 15.1 ± 0.28 µM | 0.5128 and 0.512 and 0.5016 | 0.4872 and 0.488 and 0.4984 | 50.88±0.63 | 0.4901 | 0.5099 | 0.5179 | 0.4059 | 47.13±5.83 | 0.4821 | 0.5941 | 0.4763 and 0.5136 and 0.3886 | 0.5237 and 0.4864 and 0.6114 | 45.95±6.42 | 0.492 | 0.508 | 0.3924 | 0.4136 | 0.6076 | 0.5864 | Inhibition rate (16μM), 48 h, KYSE-30 [4]: 43.8±6.15
4 | COc1c2n(cc(C(=O)Nc3cccc(-c4cn(-c5ccccc5F)nn4)c3)c1=O)C[C@H]1OC[C@H](C)N1C2=O [KJ-2] | 25.3 ± 2.07 µM | 0.513 and 0.5093 and 0.5087 | 0.487 and 0.4907 and 0.4913 | 51.03±0.23 | 0.5009 | 0.4991 | 0.4718 | 0.4501 | 47.43±2.55 | 0.5282 | 0.5499 | 0.497 and 0.5116 and 0.431 | 0.503 and 0.4884 and 0.569 | 47.99±4.29 | 0.5011 | 0.4989 | 0.4582 | 0.3717 | 0.5418 | 0.6283 | Inhibition rate (16μM), 48 h, KYSE-30 [4]: 44.92±6.50
5 | C[C@H]1CO[C@@H]2Cn3cc(C(=O)NCc4ccc(F)cc4F)c(=O)c(O)c3C(=O)N12 [Cabotegravir] |  |  |  |  |  |  |  |  |  |  |  |  |  |  |  |  |  |  |  |  | IC50 ([1]; Homo sapiens): > 50 µM
